From PubChem BioAssay AID330 (DTP/NCI, 2004)
Values joined by “and” are separate entries in the source; they are usually repeats but may differ in a detail not shown here. Equal values may be shown once. Inconclusive results and toxic doses are left out.

Tested on: P388 leukemia ip, CD2F1 mice, survival T/C
Assay: NCI In Vivo Anticancer Drug Screen. Data for tumor model P388 Leukemia (intraperitoneal) in CD2F1 (CDF1) mice
Settings: endpoint: median survival time, higher = longer survival
Summary of the method: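 Mice carrying the transplanted tumor received test compound or vehicle. Survival was recorded in each group, and the value is the treated-group measurement divided by that of the vehicle-treated control group.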

[1] = dose: 50.0 mg/kg/injection, schedule: Q01DX005 (ip), vehicle: saline with Tween-80
[2] = dose: 100.0 mg/kg/injection, schedule: Q01DX005 (ip), vehicle: saline with Tween-80
[3] = dose: 200.0 mg/kg/injection, schedule: Q01DX005 (ip), vehicle: saline with Tween-80
[4] = dose: 100.0 mg/kg/injection, schedule: Q01DX009 (ip), vehicle: saline
[5] = dose: 200.0 mg/kg/injection, schedule: Q01DX009 (ip), vehicle: saline

`CN(C)c1ccc(C(Cc2ccc3ccccc3n2)Cc2ccc3ccccc3n2)cc1` was tested, and the T/C [1] was 99 % of control, the T/C [2] was 88 % of control and the T/C [3] was 89 % of control.

`CCCC(C)Br` (stereo unspecified) was tested, and the T/C [4] was 109 % of control, the T/C [5] was 114 % of control and the T/C (dose: 400.0 mg/kg/injection, schedule: Q01DX009 (ip), vehicle: saline) was 115 % of control.

For `Cc1c(N)c(=O)oc2cc3occc(=O)c3cc12`, the T/C (dose: 100.0 mg/kg/injection, schedule: Q01DX001 (ip), vehicle: saline with Tween-80) was 91 % of control, the T/C (dose: 200.0 mg/kg/injection, schedule: Q01DX001 (ip), vehicle: saline with Tween-80) was 89 % of control and the T/C (dose: 400.0 mg/kg/injection, schedule: Q01DX001 (ip), vehicle: saline with Tween-80) was 92 % of control.

In the case of `CC1CN=C(c2ccc(NC(=O)Nc3ccc(C(=O)Nc4ccc(C5=NCC(C)N5)cc4)cc3)cc2)N1` (stereo unspecified), the T/C (dose: 12.5 mg/kg/injection, schedule: Q01DX009 (ip), vehicle: saline with Tween-80) is reported as 195 % of control, the T/C (dose: 25.0 mg/kg/injection, schedule: Q01DX009 (ip), vehicle: saline with Tween-80) is reported as 159 % of control and 213 % of control and the T/C (dose: 25.0 mg/kg/injection, schedule: Q04DX003 (ip), vehicle: saline with Tween-80) is reported as 116 % of control. The T/C (dose: 50.0 mg/kg/injection, schedule: Q01DX009 (ip), vehicle: saline with Tween-80) was 95 % of control, the T/C (dose: 100.0 mg/kg/injection, schedule: Q04DX003 (ip), vehicle: saline with Tween-80) was 150 % of control and the T/C (dose: 100.0 mg/kg/injection, schedule: Q04DX003 (ip), vehicle: saline) was 163 % of control.

With `CNCCCC1c2ccccc2C=Cc2ccccc21` the T/C (dose: 6.25 mg/kg/injection, schedule: Q01DX009 (ip), vehicle: saline) was 100 % of control and the T/C (dose: 12.5 mg/kg/injection, schedule: Q01DX009 (ip), vehicle: saline) was 90 % of control.

With `COc1cc2c(cc1OC)[C@H]1[C@H](C)c3ccc4c(c3CN1CC2)OCO4` the T/C (dose: 12.5 mg/kg/injection, schedule: Q04DX002 (ip), vehicle: Klucel (hydroxypropylcellulose) (HPC)) was 97 % of control, the T/C (dose: 25.0 mg/kg/injection, schedule: Q04DX002 (ip), vehicle: Klucel (hydroxypropylcellulose) (HPC)) was 95 % of control and the T/C (dose: 50.0 mg/kg/injection, schedule: Q04DX002 (ip), vehicle: Klucel (hydroxypropylcellulose) (HPC)) was 103 % of control and 106 % of control.

For `COCC(O)COC`, the T/C (dose: 50.0 mg/kg/injection, schedule: Q01DX009 (ip), vehicle: saline) was 94 % of control, the T/C [4] was 96 % of control and the T/C [5] was 87 % of control.

For `COCC#CC(C)(C)OC`, the T/C (dose: 60.0 mg/kg/injection, schedule: Q01DX005 (ip), vehicle: saline) was 95 % of control, the T/C (dose: 120.0 mg/kg/injection, schedule: Q01DX005 (ip), vehicle: saline) was 95 % of control and the T/C (dose: 240.0 mg/kg/injection, schedule: Q01DX005 (ip), vehicle: saline) was 99 % of control.

`CC(C)(C)OC(=O)NC(CCCCNC(=O)OCc1ccccc1)C(=O)NC(CCCCNC(=O)OCc1ccccc1)C(=O)NC(CCCCNC(=O)OCc1ccccc1)C(=O)OCc1ccccc1` (stereo unspecified) was tested, and the T/C (dose: 12.5 mg/kg/injection, schedule: Q01DX005 (ip), vehicle: saline with Tween-80) was 100 % of control, the T/C (dose: 25.0 mg/kg/injection, schedule: Q01DX005 (ip), vehicle: saline with Tween-80) was 97 % of control and the T/C [1] was 100 % of control.

In the case of `CC1=C(C(=O)/C=C/c2ccccc2)C(=O)c2ccccc2C1=O`, the T/C [1] is reported as 95 % of control, the T/C [2] is reported as 87 % of control and the T/C [3] is reported as 105 % of control.

In the case of `COc1ccc2nc3cc(Cl)ccc3c(Nc3ccc(S(=O)(=O)Nc4nccs4)cc3)c2c1`, the T/C [1] is reported as 94 % of control, the T/C [2] is reported as 105 % of control and the T/C [3] is reported as 97 % of control.

`O=C(NC1COB(c2cccc([N+](=O)[O-])c2)OC1c1ccc([N+](=O)[O-])cc1)C(Cl)Cl` (stereo unspecified) was tested, and the T/C (dose: 60.0 mg/kg/injection, schedule: Q01DX005 (ip), vehicle: Klucel (hydroxypropylcellulose) (HPC)) was 98 % of control, the T/C (dose: 120.0 mg/kg/injection, schedule: Q01DX005 (ip), vehicle: Klucel (hydroxypropylcellulose) (HPC)) was 98 % of control and the T/C (dose: 240.0 mg/kg/injection, schedule: Q01DX005 (ip), vehicle: Klucel (hydroxypropylcellulose) (HPC)) was 93 % of control.

For `COC(=O)C1(CC(=O)c2cccc3ccccc23)NC(=S)NC(=O)C1C#N` (stereo unspecified), the T/C (dose: 60.0 mg/kg/injection, schedule: Q01DX005 (ip), vehicle: saline with Tween-80) was 101 % of control, the T/C (dose: 120.0 mg/kg/injection, schedule: Q01DX005 (ip), vehicle: saline with Tween-80) was 101 % of control and the T/C (dose: 240.0 mg/kg/injection, schedule: Q01DX005 (ip), vehicle: saline with Tween-80) was 102 % of control.
